Data published in paper PMC4411102 (PLoS ONE, 2015).

Assays:
TZM-bl cells = assay: Flow cytometry, TZM-bl cells (no gp120); assay type: binding; details: 35.7μM HbAHP-25, 1 hr at RT
Description: (§2) Cells were washed with same buffer twice and binding was evaluated using flow cytometer (BD Accuri C6, USA). The data was acquired and analyzed on BD Accuri software.

HIV-1 NL4-3 (wt) = assay type: cell-based
HIV-1 NL4-3 = assay: GFP expression in CEM-GFP cells; details: HbAHP-25 prior to infection, day 5 post infection
Description: Supernatants were collected and accumulated p24 levels were determined by sandwich ELISA as per the manufacturer’s protocol (XpressBio, Thurmont, MD, USA). AZT (10nM) was used as positive control for inhibition. For GFP analysis, CEM-GFP cells were observed under fluorescent microscope (Carl Zeiss, Oberkochen, Germany) and photographed using a digital camera (DSC–S75; Sony, Tokyo, Japan). IC50 was defined as the concentration that inhibited 50% of viral activity. The selectivity index (SI) was evaluated as the ratio of CC50 to IC50 (SI = CC50/ IC50).

gp120 of HIV-1 IIIB = assay: Binding ELISA, gp120 of HIV-1 IIIB; details: ELISA
Description: (§1) After blocking with 3% bovine serum albumin (BSA) in PBS for 30 min, 100 μl of gp120 (100ng/well) in PBS-0.05% BSA was added to each well and incubated for 2 hrs at 37°C. After three washings with PBS-Tween-20 (PBS-T), cells were incubated with anti-gp120 antibody at 1:200 dilution and then with horse radish peroxidase-(HRP) conjugated secondary goat anti-human antibody (1:10000 dilution) for 1 hr at 37°C. This was followed by incubation with O-phenylenediamine for 20 min. The absorbance was measured at 492 nm on a microplate ELISA reader (ELx-800, Bio-Tek Instruments, USA). Background values obtained in the wells without HbAHP-25 were subtracted from the absorbance values from wells having all other reagents.
Supplementary file pone.0124839.s001.tif: S1 Fig Binding of designed peptides to gp120. Peptides that were designed in silico were evaluated for their binding to gp120 of HIV-1 IIIB. Peptides were coated on 96 well microtiter plate for 16 hrs and then incubated with 500ng of gp120 for 2 hrs at 37°C. This was followed by addition of anti-gp120 antibody, and absorbance was read at 492nm. Background absorbance was subtracted from the wells where peptides were not coated. […] (TIF) Click here for additional data file.

[1] = test system: vaginal/endocervical epithelial cells
HIV-1 IIIB [2] = assay: Anti-HIV activity, p24 antigen assay in H9 cells; assay type: cell-based; set-up: key to Anti-HIV activity: +: moderate; ++: significant; NA: No activity; details: for Anti-HIV activity (in words): 0.1 MoI HIV-1 IIIB pre-incubated with peptide, H9 cells, p24 on day 4
Description: Supplementary file pone.0124839.s002.tif: S2 Fig Anti-HIV activity of 3 designed peptides. Anti HIV activity of three peptides was determined using H9 cells. H9 cells were infected for 4 hrs with 0.1 MoI of HIV-1 IIIB pre-incubated with various concentrations of peptides. Peptides were added post infection as well. Supernatant was collected on day 4 post infection, and p24 antigen assay was performed. […] (TIF) Click here for additional data file.
Supplementary file pone.0124839.s003.tif: S3 Fig Anti-HIV activity of peptide analogues of peptide 1. After modifying the peptide 1, we performed anti-HIV assay as earlier. HIV-1 IIIB was pre-incubated with peptide analogues for 1 hr and then added to H9 cells for 4 hrs. Levels of p24 levels were determined on day 4 post infection. […] (TIF) Click here for additional data file.

HeLa cells = assay: Flow cytometry, HeLa cells (no gp120); assay type: binding; details: 35.7μM HbAHP-25, 1 hr at RT
Description: as §2

CD4 binding to gp120 = assay: Competitive ELISA, CD4 binding to gp120; set-up: species or system HIV-1; details: gp120 pre-incubated with HbAHP-25 30 min, then CD4 1 hr
Description: 96 well microtiter plate was coated with soluble gp120 (1μg/well) from HIV-1 BaL and HIV-1 IIIB strains for 16 hrs at 4°C. […] Anti-CD4 monoclonal antibody (1:200) was added to the wells, followed by HRP-labeled goat anti-human secondary antibody (1:10000). Rest of the protocol followed was same as described above.

gp120 of HIV-1 BaL = assay: Binding ELISA, gp120 of HIV-1 BaL
Description: as §1

HIV-1 IIIB and HIV-1 BaL = assay: Stability in seminal plasma and vaginal fluid (residual anti-HIV activity); assay type: in vitro ADME; details: 35.7 μM, up to 72 hrs
HIV-1 IIIB and ADA5 = assay: Time-of-addition assay in TZM-bl cells; details: 71.40 μM
Description: Luciferase activity was measured at 48 hrs post treatment using Luminometer (ELx-800, Bio-Tek Instruments, USA). VRC01 (0.1 μM) antibody was used as a positive control.

HIV-1 IIIB [3] = assay: Anti-HIV activity in biological fluids, HIV-1 IIIB, luciferase; assay type: cell-based; details: TZM-bl luciferase
[4] = test system: HL2/3 cells expressing gp120; assay: Flow cytometry, HL2/3 cells expressing gp120; assay type: binding; details: 35.7μM HbAHP-25, 1 hr at RT
Description: as §2

[5] = Circular dichroism spectroscopy; assay type: physicochemical; details: 37°C
Description: CD spectra was performed on a JASCO CD Spectrometer (J-815) at 37 °C using a 5.0-nm bandwidth, 0.1-cm path length, 5-s response time, and a 10-nm/min scanning speed.

[6] = test system: PBMCs, VK2/E6E7, TZM-bl, and CEM-GFP cells; assay: MTT cytotoxicity assay; assay type: cell-based, human
Description: Briefly, PBMCs, VK2/E6E7, TZM-bl, and CEM-GFP cells (5x10^4 for 24 hr assay and 2x10^4 cells for 120 hr assay) were seeded in a 96-well microtiter plate 24 hrs prior to the treatment with peptides. Cells were treated with different concentrations of peptides (4.4–1142.4μM). MTT (10 μl of 1mg/ml) was added to each well, followed by addition of 100 μl of DMSO (Sigma-Aldrich) after 3 hrs. The absorbance was measured at 540nm using ELISA reader (ELX-800, BioTek Instruments Ltd, USA.). Untreated cells were used as medium control and 0.1% Triton X-100 treated cells served as a positive control.

HIV-1 VSV = assay type: cell-based, HIV-1 pseudotyped with VSV-G
gp120 = gp120 (Human immunodeficiency virus type 1 group M subtype B, UniProt P04578); assay: Surface plasmon resonance; assay type: binding, HIV-1
Description: Briefly, gp120 (20 μg/ml) was immobilized onto carboxymethylated dextran (CM5) surface based sensor chip by amine coupling method according to the manufacturer’s instructions. […] 10mM NaOH and 0.5% SDS were used to regenerate the sensor chip surface after each experimental cycle. The binding response in resonance units (RU) was recorded as a function of time. Non-specific binding was subtracted from the control flow cells without gp120. Binding kinetics was determined with BIA evaluation 4.1 software (BIAcore) using 1:1 Langmuir binding model.

[7] = 2.2–71.40 μM coated, gp120 100ng/well

## CC(C)C[C@H](NC(=O)[C@H](CC(C)C)NC(=O)[C@H](CCCCN)NC(=O)[C@H](CS)NC(=O)[C@H](CC(N)=O)NC(=O)[C@@H](NC(=O)[C@@H]1CCCN1C(=O)[C@H](CC(=O)O)NC(=O)[C@@H](NC(=O)[C@H](CCCNC(=N)N)NC(=O)[C@H](CC(C)C)NC(=O)[C@H](CCCCN)NC(=O)[C@H](Cc1c[nH]cn1)NC(=O)[C@H](C)N)C(C)C)C(C)C)C(=O)N[C@@H](CO)C(=O)N[C@@H](Cc1c[nH]cn1)C(=O)N[C@@H](CS)C(=O)N[C@@H](CC(C)C)C(=O)N[C@@H](CC(C)C)C(=O)N[C@H](C(=O)N[C@H](C(=O)N[C@@H](CC(C)C)C(=O)N[C@@H](C)C(=O)N[C@@H](CCCNC(=N)N)C(=O)N[C@@H](Cc1c[nH]cn1)C(N)=O)[C@@H](C)O)C(C)C [HbAHP-25]
TZM-bl cells
  Shift in fluorescent peak in FL-1A channel: < 3%
HIV-1 NL4-3 (wt)
  Infectivity of HIV-1 (wt): inhibited
HIV-1 NL4-3
  GFP expression: reduced
gp120 of HIV-1 IIIB; [7]
  Binding to recombinant gp120 of HIV-1 IIIB: binds to recombinant gp120 of both HIV-1 IIIB and HIV-1 BaL in a dose dependent manner
gp120 of HIV-1 IIIB; HIV-1 IIIB gp120
  Concentration with significant binding to gp120: above 8.9 μM
[1]
  Disruption of tight junctions: does not cause disruptions of tight junctions
  Induction of inflammation: does not induce any inflammation
HIV-1 IIIB [2]; listed as analogue-1b
  Anti-HIV activity (in words): showed better anti-HIV activity than analogue-1a and analogue of peptide-3
HIV-1 IIIB [2]; listed as peptide analogue-1b
  Anti-HIV activity (in words): significantly enhanced
HIV-1 IIIB [2]; class symbols of Table 1, HIV-1 IIIB in H9 cells, p24 (S2, S3 Fig)
  Anti-HIV activity: ++
HeLa cells
  Shift in fluorescent peak in FL-1A channel: < 3%
CD4 binding to gp120
  Inhibition of CD4 binding to gp120: significant reduction in the absorbance
gp120 of HIV-1 BaL; [7]
  Binding to recombinant gp120 of HIV-1 BaL: binds to recombinant gp120 of both HIV-1 IIIB and HIV-1 BaL in a dose dependent manner
gp120 of HIV-1 BaL; HIV-1 BaL gp120
  Concentration with significant binding to gp120: above 8.9 μM
lactobacilli
  Effect on lactobacilli: not inhibitory to lactobacilli
HIV-1 IIIB and HIV-1 BaL; human seminal plasma
  Loss in anti-HIV activity after pre-incubation with seminal plasma: did not observe any significant loss
HIV-1 IIIB and HIV-1 BaL; human vaginal fluid
  Loss in anti-HIV activity after pre-incubation with vaginal fluid: did not observe any significant loss
HIV-1 IIIB and ADA5; During: peptide and virus added simultaneously
  Anti-HIV activity, during infection: still significant
HIV-1 IIIB and ADA5; Post: peptide 6 hrs after infection
  Anti-HIV activity, post infection: significantly lesser than that shown by the first two groups
HIV-1 IIIB and ADA5; Pre: virus pre-incubated with peptide
  Luciferase activity, pre-incubation: significantly lesser luciferase activity
HIV-1 IIIB and ADA5; peptide at all three steps
  Inhibition, all steps: Maximum inhibition
HIV-1 IIIB [3]; human seminal plasma
  Change in anti-HIV activity with seminal plasma: did not observe any significant change
HIV-1 IIIB [3]; human vaginal fluid
  Change in anti-HIV activity with vaginal fluid: did not observe any significant change
[4]
  Shift in fluorescent peak in FL-1A channel: 60.10 ± 4.3%
[5]; 10 μM, PBS pH 7 / sodium acetate pH 4, from ellipticity at 222 nm
  α-helical content: about 50%
[5]; pH 4 versus pH 7, 10 μM
  Structure at low pH: no significant change in its structure at low pH
[6]; CC50 versus IC50
  CC50 fold higher than IC50: 5 fold
[6]; MTT
  Cytotoxicity in words: not cytotoxic
[6]; dose higher than its IC50
  Dose without adverse effect on viability, relative to IC50: 3 fold
HIV-1 VSV
  Entry of HIV-1 VSV: able to enter the cells within one hour even in the presence of HbAHP-25
  Infectivity of HIV-1 VSV: not affected
gp120; SPR
  Rmax: 99.7 RU
gp120; fit to 1:1 Langmuir model
  Chi2: 14.7
